# US9714236B2, “Compounds and methods for inhibiting JAK” (AstraZeneca AB, priority 2015, dated 2017)
# Legend:
# Format in all cases: biochemical
# [1] = biological target: recombinant JAK1 (amino acids 866-1154) (Homo sapiens (Human), UniProt P23458); experiment: Enzyme inhibition studies, JAK1 (peptide phosphorylation, Caliper LC3000); conditions: ATP concentration not given (assayed at ATP Km 55 μM and at 5 mM)
# Procedure: (§1) Enzyme inhibition studies were performed using recombinant JAK1 (amino acids 866-1154, Life Technologies, #PV4774, Carlsbad, Calif.), JAK2 (amino acids 831-1132), or JAK3 (amino acids 781-1124) under buffer conditions of 50 mM HEPES pH 7.3, 1 mM DTT, 0.01% Tween® 20, 50 μg/mL BSA, and 10 mM MgCl2. JAK enzyme was expressed as an N-terminal GST fusion in insect cells and purified by glutathione-affinity and size-exclusion chromatographies. […] Phosphorylated and unphosphorylated peptides were separated and quantified by a Caliper LC3000 system (Caliper Life Sciences, MA) for calculating percent inhibition.
# [2] = biological target: recombinant JAK3 (amino acids 781-1124) (Homo sapiens (Human), UniProt P52333); experiment: Enzyme inhibition studies, JAK3 (peptide phosphorylation, Caliper LC3000); conditions: ATP concentration of the tabulated values not stated (assayed at ATP Km 3 μM and at 5 mM)
# Procedure: as §1
# [3] = biological target: recombinant JAK2 (amino acids 831-1132) (Homo sapiens (Human), UniProt O60674); experiment: Enzyme inhibition studies, JAK2 (peptide phosphorylation, Caliper LC3000); conditions: ATP concentration of the tabulated values not stated (assayed at ATP Km 15 μM and at 5 mM)
# Procedure: as §1
# Sequence of recombinant JAK1 (amino acids 866-1154) (P23458 866-1154): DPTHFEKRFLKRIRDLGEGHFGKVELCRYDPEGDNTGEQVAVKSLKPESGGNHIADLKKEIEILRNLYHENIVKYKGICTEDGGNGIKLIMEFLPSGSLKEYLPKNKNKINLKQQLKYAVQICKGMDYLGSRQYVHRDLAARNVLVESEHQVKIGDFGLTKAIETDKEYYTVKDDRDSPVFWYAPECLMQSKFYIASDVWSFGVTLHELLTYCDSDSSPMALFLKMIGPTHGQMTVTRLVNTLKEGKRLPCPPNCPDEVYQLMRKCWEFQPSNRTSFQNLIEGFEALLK
# Sequence of recombinant JAK3 (amino acids 781-1124) (P52333 781-1124): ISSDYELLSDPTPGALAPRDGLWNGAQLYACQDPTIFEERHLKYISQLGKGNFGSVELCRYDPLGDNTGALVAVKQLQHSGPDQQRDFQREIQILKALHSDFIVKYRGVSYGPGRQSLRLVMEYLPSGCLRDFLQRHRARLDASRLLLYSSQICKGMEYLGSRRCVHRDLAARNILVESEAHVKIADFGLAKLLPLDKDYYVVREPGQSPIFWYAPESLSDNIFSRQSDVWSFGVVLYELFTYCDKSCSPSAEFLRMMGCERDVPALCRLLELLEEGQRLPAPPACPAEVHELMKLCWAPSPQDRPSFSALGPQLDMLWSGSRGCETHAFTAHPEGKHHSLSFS
# Sequence of recombinant JAK2 (amino acids 831-1132) (O60674 831-1132): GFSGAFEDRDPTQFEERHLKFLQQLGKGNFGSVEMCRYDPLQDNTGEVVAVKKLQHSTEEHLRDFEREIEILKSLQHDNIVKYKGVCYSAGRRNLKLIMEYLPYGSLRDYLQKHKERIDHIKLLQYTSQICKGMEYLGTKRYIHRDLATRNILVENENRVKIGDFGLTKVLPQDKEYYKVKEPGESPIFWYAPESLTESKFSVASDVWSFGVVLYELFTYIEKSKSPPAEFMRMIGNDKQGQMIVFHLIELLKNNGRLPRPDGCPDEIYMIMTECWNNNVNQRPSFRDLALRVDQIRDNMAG
Compound,IC50 [1] [nM],IC50 [2] [µM],IC50 [3] [µM]
"Cc1cnc(Nc2cn(C)nc2C)nc1-c1c[nH]c2c(NC(=O)[C@H](C)N3CCN(C)CC3)cccc12 [Example 42, (2S)-N-(3-{2-[(1,3-dimethyl-1H-pyrazol-4-yl)amino]-5-methylpyrimidin-4-yl}-1H-indol-7-yl)-2-(4-methylpiperazin-1-yl)propanamide]",106,> 30,21.1
"CC[C@@H](C(=O)Nc1cccc2c(-c3nc(Nc4cn(C)nc4OC)ncc3C)c[nH]c12)N1CCN(C)CC1 [Example 43, (2S)-N-(3-{2-[(3-Methoxy-1-methyl-1H-pyrazol-4-yl)amino]-5-methylpyrimidin-4-yl}-1H-indol-7-yl)-2-(4-methylpiperazin-1-yl)butanamide]",79,> 30,21.1
"CC[C@H](C(=O)Nc1cccc2c(-c3nc(Nc4cn(C)nc4OC)ncc3C)c[nH]c12)N1CCN(C)CC1 [Example 44, (2R)-N-(3-{2-[(3-Methoxy-1-methyl-1H-pyrazol-4-yl)amino]-5-methylpyrimidin-4-yl}-1H-indol-7-yl)-2-(4-methylpiperazin-1-yl)butanamide]",< 4,> 30,1.95
"COC[C@H](C(=O)Nc1cccc2c(-c3nc(Nc4cn(C)nc4OC)ncc3C)c[nH]c12)N1CCN(C)CC1 [Example 45, (2R)-3-methoxy-N-(3-{2-[(3-methoxy-1-methyl-1H-pyrazol-4-yl)amino]-5-methylpyrimidin-4-yl}-1H-indol-7-yl)-2-(4-methylpiperazin-1-yl)propanamide]",< 3,> 30,0.79
"COC[C@@H](C(=O)Nc1cccc2c(-c3nc(Nc4cn(C)nc4OC)ncc3C)c[nH]c12)N1CCN(C)CC1 [Example 46, (2S)-3-methoxy-N-(3-{2-[(3-methoxy-1-methyl-1H-pyrazol-4-yl)amino]-5-methylpyrimidin-4-yl}-1H-indol-7-yl)-2-(4-methylpiperazin-1-yl)propanamide]",986,> 30,> 30
"CC[C@H](C(=O)Nc1cccc2c(-c3ccnc(Nc4cn(C)nc4OC)n3)c[nH]c12)N1CCN(C)CC1 [Example 47, (2R)-N-(3-{2-[(3-Methoxy-1-methyl-1H-pyrazol-4-yl)amino]pyrimidin-4-yl}-1H-indol-7-yl)-2-(4-methylpiperazin-1-yl)butanamide]",13,> 30,6.95
"CC[C@@H](C(=O)Nc1cccc2c(-c3ccnc(Nc4cn(C)nc4OC)n3)c[nH]c12)N1CCN(C)CC1 [Example 48, (2S)-N-(3-{2-[(3-Methoxy-1-methyl-1H-pyrazol-4-yl)amino]pyrimidin-4-yl}-1H-indol-7-yl)-2-(4-methylpiperazin-1-yl)butanamide]",1210,> 30,> 30
"CC[C@H](C(=O)Nc1cccc2c(-c3nc(Nc4cn(C)nc4C)ncc3F)c[nH]c12)N1CCN(C)CC1 [Example 49, (2R)-N-(3-{2-[(1,3-dimethyl-1H-pyrazol-4-yl)amino]-5-fluoropyrimidin-4-yl}-1H-indol-7-yl)-2-(4-methylpiperazin-1-yl)butanamide]",< 4,> 30,1.77
"CC[C@@H](C(=O)Nc1cccc2c(-c3nc(Nc4cn(C)nc4C)ncc3F)c[nH]c12)N1CCN(C)CC1 [Example 50, (2S)-N-(3-{2-[(1,3-dimethyl-1H-pyrazol-4-yl)amino]-5-fluoropyrimidin-4-yl}-1H-indol-7-yl)-2-(4-methylpiperazin-1-yl)butanamide]",265,> 30,24.1
"COC[C@H](C(=O)Nc1cccc2c(-c3nc(Nc4cn(C)nc4C)ncc3F)c[nH]c12)N1CCN(C)CC1 [Example 53, (2R)-N-(3-{2-[(1,3-dimethyl-1H-pyrazol-4-yl)amino]-5-fluoropyimidin-4-yl}-1H-indol-7-yl)-3-methoxy-2-(4-methylpiperazin-1-yl)propanamide]",< 3,> 30,0.322
"COC[C@@H](C(=O)Nc1cccc2c(-c3nc(Nc4cn(C)nc4C)ncc3F)c[nH]c12)N1CCN(C)CC1 [Example 54, (2S)-N-(3-{2-[(1,3-dimethyl-1H-pyrazol-4-yl)amino]-5-fluoropyrimidin-4-yl}-1H-indol-7-yl)-3-methoxy-2-(4-methylpiperazin-1-yl)propanamide]",1670,> 30,> 30
"CCc1nn(C)cc1Nc1ncc(C)c(-c2c[nH]c3c(NC(=O)[C@@H](C)N4CCN(C)CC4)cccc23)n1 [Example 55, (2R)-N-(3-{2-[(3-ethyl-1-methyl-1H-pyrazol-4-yl)amino]-5-methylpyrimidin-4-yl}-1H-indol-7-yl)-2-(4-methylpiperazin-1-yl)propanamide]",27,> 30,4.22
"Cc1nn(C)cc1Nc1ncc(F)c(-c2c[nH]c3c(NC(=O)[C@@H](C)N4CCN(C)CC4)cccc23)n1 [Example 56, (2R)-N-(3-{2-[(1,3-dimethyl-1H-pyrazol-4-yl)amino]-5-fluoropyrimidin-4-yl}-1H-indol-7-yl)-2-(4-methylpiperazin-1-yl)propanamide]",28,> 30,5.15
"Cc1nn(C)cc1Nc1nccc(-c2c[nH]c3c(NC(=O)[C@@H](C)N4CCN(C)CC4)cccc23)n1 [Example 57, (2R)-N-(3-{2-[(1,3-dimethyl-1H-pyrazol-4-yl)amino]pyrimidin-4-yl}-1H-indol-7-yl)-2-(4-methylpiperazin-1-yl)propanamide]",69,> 30,9.26
"CCn1cc(Nc2ncc(C)c(-c3c[nH]c4c(NC(=O)[C@@H](C)N5CCN(C)CC5)cccc34)n2)c(OC)n1 [Example 58, (2R)-N-(3-{2-[(1-ethyl-3-methoxy-1H-pyrazol-4-yl)amino]-5-methylpyrimidin-4-yl}-1H-indol-7-yl)-2-(4-methylpiperazin-1-yl)propanamide]",17,> 30,8.85
"CCOc1nn(CC)cc1Nc1ncc(C)c(-c2c[nH]c3c(NC(=O)[C@@H](C)N4CCN(C)CC4)cccc23)n1 [Example 59, (2R)-N-(3-{2-[(3-ethoxy-1-ethyl-1H-pyrazol-4-yl)amino]-5-methylpyrimidin-4-yl}-1H-indol-7-yl)-2-(4-methylpiperazin-1-yl)propanamide]",69,> 30,> 30
"COC[C@H](C(=O)Nc1cccc2c(-c3ccnc(Nc4cn(C)nc4OC)n3)c[nH]c12)N1CCN(C)CC1 [Example 60, (2R)-3-Methoxy-N-(3-{2-[(3-methoxy-1-methyl-1H-pyrazol-4-yl)amino]pyrimidin-4-yl}-1H-indol-7-yl)-2-(4-methylpiperazin-1-yl)propanamide]",4,> 30,1.53
"COC[C@@H](C(=O)Nc1cccc2c(-c3ccnc(Nc4cn(C)nc4OC)n3)c[nH]c12)N1CCN(C)CC1 [Example 61, (2S)-3-Methoxy-N-(3-{2-[(3-methoxy-1-methyl-1H-pyrazol-4-yl)amino]pyrimidin-4-yl}-1H-indol-7-yl)-2-(4-methylpiperazin-1-yl)propanamide]",2900,> 30,> 30
"CCOc1nn(C)cc1Nc1ncc(C)c(-c2c[nH]c3c(NC(=O)[C@@H](CC)N4CCN(C)CC4)cccc23)n1 [Example 62, (2R)-N-(3-{2-[(3-ethoxy-1-methyl-1H-pyrazol-4-yl)amino]-5-methylpyrimidin-4-yl}-1H-indol-7-yl)-2-(4-methylpiperazin-1-yl)butanamide]",< 6,> 30,5.01
"CCOc1nn(C)cc1Nc1ncc(C)c(-c2c[nH]c3c(NC(=O)[C@H](CC)N4CCN(C)CC4)cccc23)n1 [Example 63, (2S)-N-(3-{2-[(3-ethoxy-1-methyl-1H-pyrazol-4-yl)amino]-5-methylpyrimidin-4-yl}-1H-indol-7-yl)-2-(4-methylpiperazin-1-yl)butanamide]",192,> 30,> 30
